Test results published in US5292757A, “1,4-dihydropyridine compounds useful as reverse resistance agents” (Ajinomoto Company, Inc., priority 1991, dated 1994).
Converted amounts (≈) assume the structure as drawn. Structures can show the parent of a compound that is named as a salt.

Experiments:
[1] = system: Vincristine-resistant mouse P388 leukemia cells; assay: Test of effect on overcoming anti-cancer drug resistance (growth inhibition by vincristine, MTT method); type: cell-based
Method: Vincristine-resistant mouse P388 leukemia cells were used as an example of resistant cancer cells. RPMI-1640 medium containing 5 μM of 2-mercaptoethanol and 10% fetal calf serum was used for incubation.
The cells were inoculated on a 96-well microplate in 1×10^4 /50 μl/well and 25 μl each of vincristine solution having a specific concentration and an aqeous solution of the test compound (4 μg/ml) was added thereto. After culturing at 37° C. for 2 days, the viable cells were counted by the MTT method and a dose-response curve of vincristine was prepared. Based on the curve, the concentration (IC50) of vincristine producing a 50% inhibition of growth was determined.

colon 26 cells = assay: Regression of tumor in colon 26 bearing mice in combination with adriamycin; type: in vivo, mouse (CDF1); conditions: for reducing tumor weight: in combination with adriamycin
Method: 20 mg of colon 26 cells were transplanted subcutaneously to CDF1 mice (6 weeks old, female) on day 0. On day 6 the diameter of the tumor was measured and groups of 5 mice were selected having equal average tumor size. On day 7 and 14, 10 mg/kg of adriamycin was injected i.v. and the tested compounds were administered p.o. at 0, 8, 24, 32 hours after the injection of adriamycin. Adriamycin was dissolved in saline to a concentration of 2 mg/ml and the compounds in Example 61 and 62 were dissolved in saline to a concentration of 50 mg/ml. The diameter of the tumor was measured each week and tumor weight was estimated as follows: [formula] (L:long diameter, S:short diameter, mm)

[2] = compound dose 250 mg p.o. with adriamycin 10 mg/kg i.v., hydrochloride
[3] = compound dose 500 mg p.o. with adriamycin 10 mg/kg i.v., hydrochloride

SMILES	tumor weight (colon 26 cells; [2]) [g]	tumor weight (colon 26 cells; [3]) [g]	reducing tumor weight (colon 26 cells)	also measured
COC(=O)C1=C(C)N(CCCc2ccccc2)C(C)=C(C(=O)OCCCN2CCN(CC(C)C)CC2)C1c1ccc(OC)c(OC)c1 (stereo not drawn) [Example 3, 1,4-dihydro-4-(3,4-dimethoxyphenyl)-2,6-dimethyl-1-(3-phenylpropyl)-3,5-pyridinedicarboxylic acid 3-methyl-5-[3-(4-isobutylpiperazino)propyl]ester]				IC50 (concentration of vincristine producing a 50% inhibition of growth in the presence of the compound) ([1]; vincristine IC50, test compound present at 1 μg/ml, 37° C., 2 days, MTT): 0.0015 µg/mL
COC(=O)C1=C(C)N(CCCc2ccccc2)C(C)=C(C(=O)OCCCc2cccnc2)C1c1ccc(OC)c(OC)c1 (single isomer, unassigned; (+)) [Example 61, (+)-1,4-dihydro-4-(3,4-dimethoxyphenyl)-2,6-dimethyl-1-(3-phenylpropyl)-3,5-pyridinedicarboxylic acid 3-methyl-5-[3-(3-pyridyl)propyl] ester hydrochloride]	2.2	2	effective in reducing tumor weight in combination with adriamycin	
CC[C@]1(O)C[C@H]2CN(CCc3c([nH]c4ccccc34)[C@@](C(=O)OC)(c3cc4c(cc3OC)N(C=O)[C@H]3[C@@](O)(C(=O)OC)[C@H](OC(C)=O)[C@]5(CC)C=CCN6CC[C@]43[C@@H]65)C2)C1 [vincristine, reference compound]				IC50 ([1]; Mus musculus, P388, 48 h, read-out: IC50 of vincristine alone): 0.05 to 0.1 µg/mL (≈ 0.0606 to 0.121 µM)
COc1cccc2c1C(=O)c1c(O)c3c(c(O)c1C2=O)C[C@@](O)(C(=O)CO)C[C@@H]3O[C@H]1C[C@H](N)[C@H](O)[C@H](C)O1 [Adriamycin, reference compound]				tumor weight (colon 26 cells; adriamycin 10 mg/kg i.v. alone, no test compound (untreated 4.5 g)): 2.7 g
COC(=O)C1=C(C)N(CCCc2ccccc2)C(C)=C(C(=O)OCCCc2cccnc2)C1c1ccc(OC)c(OC)c1 (single isomer, unassigned; (-)) [Example 62, (-)-1,4-dihydro-4-(3,4-dimethoxyphenyl)-2,6-dimethyl-1-(3-phenylpropyl-3,5-pyridinedicarboxylic acid 3-methyl-5-[3-(3-pyridyl)propyl]ester hydrochloride]	1.8	1.1	effective in reducing tumor weight in combination with adriamycin	
